Results: patent US4732890A, “Retro-inverso hexapeptide neurotensin analogs, process for their preparation and pharmaceutical compositions containing them” (Eniricerche S.p.A., priority 1985, dated 1988)

What was measured:
[1] = cited from earlier work
male rats = experiment: Blood pressure after i.v. injection in urethane-anesthetized male rats; assay type: in vivo, rat; conditions: 20 meq/Kg; for Arterial pressure: i.v. right femoral vein, basal 80-130 mmHg; for Pressure Δ: i.v., versus basal 80-130 mmHg
Experimental: Typically, male rats weighing about 200-300 g, anesthetized with urethane (1.75 g/Kg i.p.), were employed in these tests and the hexapeptide [drawing 9] was administered by i.v. injection in the right femoral vein at a dosage of 20 meq/Kg body weight.
Blood pressure was recorded at different times following the injection.
The basal values were on the average 80-130 mmHg.

Row | Substance | in vivo biological activity relative to NT [1] | Arterial pressure (male rats; 30' from admin.) | Pressure Δ (male rats; 30' from admin.) | Arterial pressure (male rats; 1 h from admin.) | Pressure Δ (male rats; 1 h from admin.) | Arterial pressure (male rats; 2 h from admin.) | Pressure Δ (male rats; 2 h from admin.) | Arterial pressure (male rats; 2.5 h from admin.) | Pressure Δ (male rats; 2.5 h from admin.) | Arterial pressure (male rats; 3.5 h from admin.) | Pressure Δ (male rats; 3.5 h from admin.) | Arterial pressure (male rats; 4.5 h from admin.) | Pressure Δ (male rats; 4.5 h from admin.) | Arterial pressure (male rats; 5 h from admin.) | Pressure Δ (male rats; 5 h from admin.) | Arterial pressure (male rats; 6 h from admin.) | Pressure Δ (male rats; 6 h from admin.)
1 | Arg-Arg-Pro-Tyr-Ile-Leu (RRPYIL; printed: Arg-Arg-Pro-Tyr-Ile-Leu) [C-terminal hexapeptide, C-terminal hexapeptide fragment of NT] | much lower than NT itself |  |  |  |  |  |  |  |  |  |  |  |  |  |  |  | 
2 | Arginyl-arginyl-prolyl-tyrosyl-gem diamino-isoleucyl-(R,S)malonyl-leucine [Example 1] |  | 80-125 mmHg | 0-5 | 75-125 mmHg | 5-5 | 75-125 mmHg | 5-5 | 75-120 mmHg | 5-10 | 75-120 mmHg | 5-10 | 70-110 mmHg | 10-20 | 70-110 mmHg | 10-20 | 65-105 mmHg | 15-25
